Four molecules from US20100317577A1, “Methods and Compositions for Inhibiting Cell Death or Enhacing Cell Proliferation” (Department of Health and Human Services, priority 2005, published 2010) can be followed below.

One series relates to HL-60 cells. As to conditions: for effect on staurosporine cytotoxicity (cell number): chimera at forty-eight hours.
Series [1] in a line: Protease sensitivity during expression in Pichia pastoris. As to conditions: high concentrations of protease inhibitors.
Protocol: In Pichia, GM-CSF-Bcl-XL was expressed intracellularly. The expression was monitored by Western blot.
The cells were harvested by centrifugation at 5,000 g, and, washed with binding buffer (5 mM imidazole, 20 mM Tris/Cl pH 7.9, 0.5M NaCl) containing 2 protease inhibitor tablets, COMPLETE PROTEASE INHIBITOR COCKTAIL EDTA-free (Roche Diagnostics, Indianapolis, Ind.),/50 ml of buffer. Cells were lysed by adding 100 g of acid washed glass beads (0.5 g of beads/ml of initial culture) with 1 cycle of 5 minutes, frequency 30 Hz, in a mixer mill (Retsch MM200, Haan, Del.). The cellular debris were eliminated by centrifugation at 18,000 g, 5 minutes at 4° C.
The subject of series [2] is Peripheral blood mononuclear cell (PBMC). It counts as cell-based, human.
The subject of series [3] is caspase 3/7. As to the kind of experiment: Caspase 3/7 activity in monocytes treated with cytotoxic drugs. Format: cell-based, human.
Series [4] deals with caspase 3/7. In words: Caspase 3/7 activity in HL-60 cells with staurosporine. As to conditions: HL-60, staurosporine. It counts as cell-based, human.

Turning to “GM-CSF-Bcl-XL: chimeric protein: human GM-CSF fused via glycine-serine-threonine linker to full length human Bcl-XL, N-terminal His tag, expressed in E. coli (SEQ ID NO:1)”, the “protection of colonies in the presence of cytarabine” value in the series with CD34^+ cells (CD34+ cells, cytarabine) is listed as “selectively protected the CFU-GM colonies relative to BFU-E”. For the same molecule, the “colonies under cytokine deprivation” value in the series on CD34^+ cells (CD34+ cells, essential medium, no growth factor/cytokines) is “protected myeloid precursors from cytokine deprivation”. Besides, the “effect on number of colonies” value with CD34^+ cells (CD34+ cells, supplemented medium (SCF, erythropoietin, cytokines)) was “two-fold”. Also, the “time of maximum effect on proliferation” value in the series with HL-60 cells (HL-60) came to 48 h. Also, the “proliferation activity higher than in cells treated with the same molar amount of GM-CSF” value in the series on HL-60 cells (HL-60, 48 hours) is reported as 30%. Also, in the series on HL-60 cells (HL-60, staurosporine), the “duration of protection from staurosporine” value is recorded as “at least seventy-two hours” and the “effect on staurosporine cytotoxicity (cell number)” value is recorded as “approximately the same number of cells as control cultures without staurosporine”. Also, the “reduction in cell death” value in the series on HL-60 cells (HL-60, with staurosporine, seventy-two hours, versus control) worked out at 30%. In addition, the “cells that had died” value in the series on HL-60 cells (HL-60, with staurosporine, seventy-two hours, 50% of control cells had died) was 20%. Besides, the sensitivity to proteolysis entry in series [1] was “very sensitive to proteolysis”. Also, the “protection of PBMC from kinase inhibitors / apoptosis” value in series [2] is “protected PBMC from both kinase inhibitors in a dose dependent manner”. In series [2] (0.24 µM), the “increase in cell viability in the presence of AG409” value is reported as 30% and the “increase in cell viability in the presence of staurosporine” value is given as 50%. The “inhibition of caspase 3/7 activity compared with GM-CSF at the same concentration” value in the series on caspase 3/7 [3] was “more effective”. In addition, the “reduction of caspase activity” value in the series on caspase 3/7 [3] (monocytes, 2.4 μM, cytotoxic drugs) is “more than 50%”.
`Nc1ccn([C@@H]2O[C@H](CO)[C@@H](O)[C@@H]2O)c(=O)n1` [cytarabine, reference compound]: the “effect on growth of CFU-GM and BFU-E colonies” value with CD34^+ cells is “drastically impaired”.
Consider “GM-CSF: human granulocyte-macrophage colony-stimulating factor, a cytokine”, for which, in the series with HL-60 cells (HL-60, staurosporine), the “effect on staurosporine cytotoxicity (cell number)” value is recorded as “not able to block the cytotoxic effect of staurosporine”. In addition, in series [2], the “prosurvival activity in the presence of AG 490” value was “completely inhibited” and the “prosurvival activity in the presence of staurosporine” value was “largely inhibited”. In the series on caspase 3/7 [4], the “effect on caspase activity / apoptosis” value is “reduced”.
Regarding `CN[C@@H]1C[C@H]2O[C@@](C)([C@@H]1OC)n1c3ccccc3c3c4c(c5c6ccccc6n2c5c31)C(=O)NC4` [staurosporine, reference compound], in the series on caspase 3/7 [4], the “effect on caspase activity / apoptosis” value is “induced apoptosis at the highest levels”.
